Earlier results in PMC5465257, “Evaluation of JNJ-54717793 a Novel Brain Penetrant Selective Orexin 1 Receptor Antagonist in Two Rat Models of Panic Attack Provocation” (Frontiers in Pharmacology, 2017).

Experiments:
[1] = parameters: method as in Beig et al., 2015a; conditions: systemic administration; ref Beig et al., 2015a; cited from earlier work
[2] = parameters: method as in Furlong et al., 2009; conditions: ref Furlong et al., 2009; cited from earlier work
Sprague-Dawley rats = test system: Sprague-Dawley rats; parameters: method as in Bonaventure et al., 2015b; Johnson et al., 2015; conditions: 20% CO2 model, ref Bonaventure et al., 2015b, Johnson et al.; cited from earlier work
GABA synthesis = test system: GABA synthesis; parameters: method as in earlier work; conditions: 3.5 nmol/0.5 μl per hour, unilateral infusions; ref Shekhar and DiMicco, 1987; Abshire et al., 1988; Shekhar et al., 1996, 2006; Shekhar and Keim, 1997; cited from earlier work

COc1ccc(C[C@H]2c3cc(OC)c(OC)cc3CCN2[C@@H](C(=O)NC(C)C)c2ccccc2)cc1OC [ACT335827]
novelty stress (cage changes) induced cardioexcitation [1]: attenuates

CNC(=O)[C@@H](c1ccccc1)N1CCc2cc(OC)c(OC)cc2[C@@H]1CCc1ccc(C(F)(F)F)cc1 [almorexant]
locomotor and cardiovascular responses to exploration and footshock [2]: attenuated

CCN(Cc1cccnc1)C(=O)CN(c1ccc(OC)nc1)S(=O)(=O)c1ccccc1C [EMPA, N-ethyl-2-[(6-methoxy-pyridin-3-yl)-(toluene-2-sulfonyl)-amino]-N-pyridin-3-ylmethyl-acetamide]
novelty stress (cage changes) induced cardioexcitation [1]: attenuates

CC1(C)OC[C@H](NC(=O)Nc2ccc(Br)cc2Br)[C@H](c2ccccc2)O1 [JNJ-10397049]
panic responses to 20% CO2 (Sprague-Dawley rats): did not alter

C=CC[C@H](N)C(=O)O [1-allyglycine]
reduction of local GABA concentrations (GABA synthesis): approximately 60%
